Reference: patent US8728539B2, “Method of enhancing intestinal pinocytosis of immunoglobulins in postnatal domestic mammals” (Incorporated Administrative Agency, National Agriculture …, priority 2004, dated 2014)

Assays:
[1] = tested on: calves (Holstein types); assay: Biochemical blood tests (18 factors) for adverse effects of added selenium; format: in vivo; conditions: blood samples 24, 48 hours and 1 week post-parturition; versus colostrum without selenium
Description: Moreover, the blood samples were taken 24, 48 hours and 1 week post-parturition respectively, and biochemical blood tests (with 18 factors) were carried out to investigate any adverse effects of added selenium on the health conditions of calves. There was little difference between the test results of the calves administered with colostrum added with selenium, and those of the calves administered with colostrum without selenium.

[2] = tested on: calves (Holstein types); assay: Absorption of lactalbumin into plasma of calves (FIG. 5); format: in vivo; conditions: 3 ppm selenium in first colostrum feed; 24 hours postnatal; versus no addition
Description: To calves administered with colostrum with selenium, selenium was added only to the first colostrum feeds.
Therefore, selenium is effective in absorption of nonimmunoglobulin proteins such as lactalbumin. Accordingly, selenium enhances pinocytosis, thereby enhancing immunoglobulin proteins or nonimmunoglobulin proteins.

[3] = tested on: calves (Holstein types); assay: IgG in plasma of postnatal calves fed colostrum with added selenium, measured by radial immuno-diffusion (RID); format: in vivo
[4] = Selenium concentration in plasma of calves after administration (FIG. 4); format: in vivo, calves (Holstein types); conditions: 3 ppm selenium, administered only once within 3 hours postnatal; versus no addition
From the text: As a supply source of selenium, sodium selenite was used. In order to avoid different absorption rates of immunoglobulins based on different types of colostrum, the same amounts of colostrum milked from the same source were fed to these two calves in a pair. The colostrums fed (frozen for preservation) were of the four types as follows: the first milking post-parturition (Colostrum 1), the second milking post-parturition (Colostrum 2), the third milking post-parturition (Colostrum 3), and the fourth milking post-parturition (Colostrum 4). 2 liters of Colostrum 1 (1 L×2 bottles) were taken, and for the rest, 4 liters (2L×2 bottles) were taken, respectively. 1 liter of Colostrum 1 within 2 hours post-parturition was fed, and then 2 liters of Colostrum 2, 3 and 4 were fed, respectively 12, 24 and 36 hours post-parturition. The concentrations of immunoglobulins in the colostrums used were 24.3-129.0 mg/ml, and those of selenium were 0.06-0.1 ppm (before adding selenium). The concentrations of immunoglobulins G (IgG) in plasma of calves 24 hours post-parturition were measured by means of radial immuno-diffusion (RID). The experiments as above were carried out while varying the selenium content based on the number of addition of selenium, i.e., (1) adding selenium only to Colostrum 1 (1.0-5.0 ppm), and (2) adding selenium to all four types of colostrum (0.2-4.0 ppm). […]

[5] = tested on: calves (Holstein types); assay: IgG in plasma of postnatal calves fed colostrum with added selenium, measured by radial immuno-diffusion (RID); format: in vivo; conditions: for IgG in Plasma: plasma 24 hours post-parturition
Description: In the example, colostrum added with selenium was administered to one of the two calves (Holstein types) in a pair, and colostrum without selenium was administered to the other calf. A total of 32 pairs of calves were employed for experimental purposes. For equalizing the experimental conditions of these two sets of calves, they were selected based on their proximities in body weight. The body weights ranged from 30.8-56.9 kg, and the differences between in body weight within a pair were less than 2.5 kg.
As a supply source of selenium, sodium selenite was used. In order to avoid different absorption rates of immunoglobulins based on different types of colostrum, the same amounts of colostrum milked from the same source were fed to these two calves in a pair. The colostrums fed (frozen for preservation) were of the four types as follows: the first milking post-parturition (Colostrum 1), the second milking post-parturition (Colostrum 2), the third milking post-parturition (Colostrum 3), and the fourth milking post-parturition (Colostrum 4). 2 liters of Colostrum 1 (1 L×2 bottles) were taken, and for the rest, 4 liters (2L×2 bottles) were taken, respectively. 1 liter of Colostrum 1 within 2 hours post-parturition was fed, and then 2 liters of Colostrum 2, 3 and 4 were fed, respectively 12, 24 and 36 hours post-parturition. The concentrations of immunoglobulins in the colostrums used were 24.3-129.0 mg/ml, and those of selenium were 0.06-0.1 ppm (before adding selenium). The concentrations of immunoglobulins G (IgG) in plasma of calves 24 hours post-parturition were measured by means of radial immuno-diffusion (RID). The experiments as above were carried out while varying the selenium content based on the number of addition of selenium, i.e., (1) adding selenium only to Colostrum 1 (1.0-5.0 ppm), and (2) adding selenium to all four types of colostrum (0.2-4.0 ppm).

[6] = 3 ppm selenium, first feed only, versus no addition

## O=[Se]([O-])[O-].[Na+].[Na+] [Se, sodium selenite]
[1]
  adverse effects on the health conditions of calves, biochemical blood tests (18 factors): no adverse effects
[2]
  absorption of lactalbumin (FIG. 5): enhances the absorption of lactalbumin
[3]; [6]
  duration of high immunoglobulin G level in blood (FIG. 7): the high level against no addition was maintained over 14 days (2 weeks)
  immunoglobulin G level in blood immediately after administration (FIG. 7): immunoglobulin G level immediately after administration of selenium is high
[3]; 5.0 ppm Se added to all four colostrum feeds (4x), plasma 24 hours post-parturition, average of 4 calves
  IgG in Plasma: 24.6 mg/mL
[3]; only 3 ppm selenium within 2 hours postnatal, then only colostrum at 12, 24, 36 hours, within 24 hours postnatal, versus no addition
  immunoglobulin G level in blood, selenium and colostrum administered separately (FIG. 6): absorption level of immunoglobulin G is high
[4]
  selenium level in blood, temporal change (FIG. 4): high selenium level in blood was maintained over 4 weeks postnatal
[5]; 0.2 ppm Se added to all four colostrum feeds (4x), average of 3 calves
  IgG in Plasma: 25.7 mg/mL
[5]; 1 ppm Se added only to first colostrum feed (1x), average of 3 calves
  IgG in Plasma: 17 mg/mL
[5]; 1.0 ppm Se added to all four colostrum feeds (4x), average of 5 calves
  IgG in Plasma: 32.9 mg/mL
[5]; 2 ppm Se added only to first colostrum feed (1x), average of 3 calves
  IgG in Plasma: 16 mg/mL
[5]; 3 ppm Se added only to first colostrum feed (1x), average of 6 calves
  IgG in Plasma: 21.5 mg/mL
[5]; 4 ppm Se added only to first colostrum feed (1x), average of 4 calves
  IgG in Plasma: 17.4 mg/mL
[5]; 4x versus 1x addition of selenium
  IgG concentration in plasma, four feeds with selenium versus first feed only with selenium: about the same level
[5]; 5 ppm Se added only to first colostrum feed (1x), average of 4 calves
  IgG in Plasma: 23 mg/mL
[5]; in most of the experimental conditions, 1x and 4x addition
  IgG concentrations in plasma versus calves given colostrum without selenium (FIGS. 2 and 3): shown to be higher
